# Reference: patent US20250326771A1, “PIPERAZINE DERIVATIVES USEFUL IN HIV THERAPY” (VIIV HEALTHCARE COMPANY, priority 2022, published 2025)
# Where two headings read alike, the source gives them in different places.
# Key:
# [1] = system: Jurkat HIV-luciferase clones; test: Jurkat latency reversal assay; format: cell-based; details: Homo sapiens, 48 h; Jurkat latency reversal assay potency; read-out: Jurkat pEC50 (converted)
# Procedure, shortened: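 EC50 and maximal activation versus vehicle were derived by four-parameter logistic regression of luciferase luminescence. The luminescence was induced in pooled Jurkat HIV-luciferase clones C16, 115 and N6 (5,000 cells/well) after 48 h at 37° C with duplicate 14-point, 3-fold dilutions starting at 10 μM (0.5% DMSO).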
# cIAP1-BIR3 = cIAP1-BIR3 (Homo sapiens (Human), UniProt Q13490); test: BIR binding assay (FRET competition), cIAP1 BIR3; details: for cIAP1 BIR3 vs BIR2 separation window: fold separation (FS) for cIAP1
# Procedure, shortened: (§1)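 Each domain is run separately at its own level: 50 nM cIAP1-BIR3, 100 nM XIAP-BIR3, 325 nM for cIAP1-BIR2 or cIAP2-BIR2. Probe is a 200 nM fluorescent SMAC peptide, and the value is IC50 from FRET competition.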
# cIAP1-BIR2 = cIAP1-BIR2 (Homo sapiens (Human), UniProt Q13490); test: BIR binding assay (FRET competition), cIAP1 BIR2
# Procedure, shortened: as §1
# cIAP2-BIR3 = cIAP2-BIR3 (Homo sapiens (Human), UniProt Q13489); test: BIR binding assay (FRET competition), cIAP2 BIR3; details: for cIAP2 BIR3 vs BIR2 separation window: fold separation (FS) for cIAP2
# XIAP-BIR3 = XIAP-BIR3 (Homo sapiens (Human), UniProt P98170); test: BIR binding assay (FRET competition), XIAP BIR3; details: for XIAP BIR3 vs BIR2 separation window: fold separation (FS) for XIAP
# Procedure, shortened: as §1
# XIAP-BIR2 = XIAP-BIR2 (Homo sapiens (Human), UniProt P98170); test: BIR binding assay (FRET competition), XIAP BIR2; details: for IC50: read-out: XIAP BIR2 (pIC50) (converted)
# Experimental: The BIR domain binding assays are FRET based competition assays that utilize His-tagged versions of each of the BIR2 and BIR3 domains from cIAP1, cIAP2, and XIAP (each domain assayed separately) each at a custom optimal concentration and a probe, 200 nM SMAC/DIABLO peptide AVPIAQKSE labelled with AlexaFluor647 (part #crb 1110326h, Discovery Peptides). The assay is conducted in 50 mM HEPES, […], 1 mM CHAPS, 5% Glycerol, 1 mM DTT, in dI water with a final pH of 7.4 and final volume of 20 uL. Final protein domain concentrations are: 50 nM cIAP1-BIR3 (Part #APT-11-370 Reaction Biology), 100 nM XIAP-BIR3 (Part #APT-11-351 Reaction Biology), 200 nM XIAP-BIR2 (Part #APT-11-470 Reaction Biology), 325 nM cIAP2-BIR2 (Part #APT-11-489 Reaction Biology), 50 nM cIAP2-BIR3 (Part #APT-11-372 Reaction Biology), 325 nM cIAP1-BIR2 (Part #APT-11-487 Reaction Biology). Compounds were plated using a HP Tecan D300 printer in a final total volume of 202 nl and DMSO concentration normalized across the 15-point, 3-fold dilution series. Peptide and probe were prepared at 2× relative to the concentrations above in binding buffer, 10 uL added to the prepared compound plates, and incubated for 60 minutes. LANCE Eu-W1024 (part #AD0401 Perkin Elmer #, vendor) was prepared at 2× concentration in binding buffer for final concentration of 2 nM, 10 uL added to each well, and plates incubated for 30 minutes. Plates were read on an ENVISION multifunction plate reader with […] laser excitation to obtain the 615 nm/665 nm emission ratio as indicative of probe:protein proximity. Data was analyzed using GraphPad PRISM and curves fit using log(inhibitor) vs. response—Variable slope (four […] method to obtain IC50 and pIC50 values.
# cIAP2-BIR2 = cIAP2-BIR2 (Homo sapiens (Human), UniProt Q13489); test: BIR binding assay (FRET competition), cIAP2 BIR2
# Procedure, shortened: as §1
# Sequence of XIAP-BIR2 (P98170 124-240): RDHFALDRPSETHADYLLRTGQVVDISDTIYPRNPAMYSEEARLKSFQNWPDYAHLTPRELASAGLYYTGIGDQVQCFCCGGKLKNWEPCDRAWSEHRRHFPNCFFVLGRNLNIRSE
# Sequence of cIAP1-BIR3 (Q13490 253-363): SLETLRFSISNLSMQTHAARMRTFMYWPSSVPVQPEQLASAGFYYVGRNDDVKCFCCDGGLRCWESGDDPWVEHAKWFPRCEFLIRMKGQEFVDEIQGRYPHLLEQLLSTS
# Sequence of cIAP1-BIR2 (Q13490 173-257): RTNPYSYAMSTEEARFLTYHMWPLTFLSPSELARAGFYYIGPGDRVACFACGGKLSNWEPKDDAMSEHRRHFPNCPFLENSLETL
# Sequence of cIAP2-BIR2 (Q13489 158-242): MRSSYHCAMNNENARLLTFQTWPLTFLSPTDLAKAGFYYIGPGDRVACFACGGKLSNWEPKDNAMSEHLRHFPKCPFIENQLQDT
# Sequence of cIAP2-BIR3 (Q13489 238-349): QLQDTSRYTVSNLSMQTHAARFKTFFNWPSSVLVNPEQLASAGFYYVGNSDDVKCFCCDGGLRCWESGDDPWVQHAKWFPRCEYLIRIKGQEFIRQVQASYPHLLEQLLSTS
# Sequence of XIAP-BIR3 (P98170 241-356): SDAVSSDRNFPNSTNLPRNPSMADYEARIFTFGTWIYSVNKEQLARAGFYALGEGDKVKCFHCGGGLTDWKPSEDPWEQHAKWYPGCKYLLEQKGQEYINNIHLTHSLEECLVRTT
Compound,EC50 [1],IC50 (cIAP1-BIR3),cIAP1 BIR3 vs BIR2 separation window (cIAP1-BIR3),IC50 (cIAP1-BIR2),IC50 (cIAP2-BIR3),IC50 (XIAP-BIR3),XIAP BIR3 vs BIR2 separation window (XIAP-BIR3),IC50 (XIAP-BIR2; FRET competition),XIAP BIR2 (pIC50) (XIAP-BIR2; FRET competition binding),cIAP2 BIR3 vs BIR2 separation window (cIAP2-BIR3),IC50 (cIAP2-BIR2),IC50 (XIAP-BIR2; FRET competition binding)
"C[C@@H]1CN(CC(=O)N2CC(C)(C)c3ncc(Oc4ccc(F)cc4)cc32)[C@@H](CN2CCO[C@H](COc3cccc(OC[C@@H]4CN(C[C@H]5CN[C@H](C)CN5CC(=O)N5CC(C)(C)c6ncc(Oc7ccc(F)cc7)cc65)CCO4)c3)C2)CN1 [Compound 142, 1-[6-(4-fluorophenoxy)-3,3-dimethyl-2H-pyrrolo[3,2-b]pyridin-1-yl]-2-[(2R,5R)-2-[[(2S)-2-[[3-[[(2S)-4-[[(2R,5R)-1-[2-[6-(4-fluorophenoxy)-3,3-dimethyl-2H-pyrrolo[3,2-b]pyridin-1-yl]-2-oxo-ethyl]-5-methyl-piperazin-2-yl]methyl]morpholin-2-yl]methoxy]phenoxy]methyl]morpholin-4-yl]methyl]-5-methyl-piperazin-1-yl]ethanone]",12.6 to 63.1 nM,15.8 to 31.6 nM,"+++ (10,000>FS>1,000)",10000 to 51300 nM,15.8 to 31.6 nM,31.6 to 501 nM,"+++ (10,000>FS>1,000)",10000 to 51300 nM,–,–,–,–
"C[C@@H]1CN(CC(=O)N2CC(C)(C)c3[nH]c(=O)c(Cc4ccc(F)cc4)cc32)[C@@H](CN2CCO[C@H](COc3ccc(-c4ccccc4)c(OC[C@@H]4CN(C[C@H]5CN[C@H](C)CN5CC(=O)N5CC(C)(C)c6[nH]c(=O)c(Cc7ccc(F)cc7)cc65)CCO4)c3)C2)CN1 [Example 78, 1,1′-(2,2′-((3R,3′R,6R,6′R)-(((2S,2'S)—(([1,1′-biphenyl]-2,4-diylbis(oxy))bis(methylene))bis(morpholine-2,4-diyl))bis(methylene))bis(3-methylpiperazine-6,1-diyl))bis(acetyl))bis(6-(4-fluorobenzyl)-3,3-dimethyl-1,2,3,4-tetrahydro-5H-pyrrolo[3,2-b]pyridin-5-one)]",12.6 to 63.1 nM,1.38 to 7.94 nM,–,–,1.38 to 7.94 nM,7.94 to 15.8 nM,"+++ (10,000>FS>1,000)",–,++ (5.00<pIC50<=5.50),–,–,–
"C[C@@H]1CN(CC(=O)N2CC(C)(C)c3[nH]c(=O)c(Cc4ccc(F)cc4)cc32)[C@@H](CN2CCO[C@H](C(=O)NCCCCCCCCNC(=O)[C@@H]3CN(C[C@H]4CN[C@H](C)CN4CC(=O)N4CC(C)(C)c5[nH]c(=O)c(Cc6ccc(F)cc6)cc54)CCO3)C2)CN1 [Example 119, (2S,2'S)-N,N′-(octane-1,8-diyl)bis(4-(((2R,5R)-1-(2-(6-(4-fluorobenzyl)-3,3-dimethyl-5-oxo-2,3,4,5-tetrahydro-1H-pyrrolo[3,2-b]pyridin-1-yl)-2-oxoethyl)-5-methylpiperazin-2-yl)methyl)morpholine-2-carboxamide)]",12.6 to 63.1 nM,1.38 to 7.94 nM,"+++ (10,000>FS>1,000)",1000 to 3160 nM,1.38 to 7.94 nM,7.94 to 15.8 nM,–,–,–,"+++ (10,000>FS>1,000)",22.4 to 1000 nM,–
"C[C@@H]1CN(CC(=O)N2CC(C)(C)c3[nH]c(=O)c(Cc4ccc(F)cc4)cc32)[C@@H](CN2CCN(C(=O)c3ccc(/C=C/c4ccc(C(=O)N5CCN(C[C@H]6CN[C@H](C)CN6CC(=O)N6CC(C)(C)c7[nH]c(=O)c(Cc8ccc(F)cc8)cc76)[C@H](C)C5)cc4)cc3)C[C@H]2C)CN1 [Example 20, 1,1′-(2,2′-((3R,3′R,6R,6′R)-(((2R,2′R)-(4,4′-((E)-ethene-1,2-diyl)bis(benzoyl))bis(2-methylpiperazine-4,1-diyl))bis(methylene))bis(3-methylpiperazine-6,1-diyl))bis(acetyl))bis(6-(4-fluorobenzyl)-3,3-dimethyl-1,2,3,4-tetrahydro-5H-pyrrolo[3,2-b]pyridin-5-one)]",12.6 to 63.1 nM,15.8 to 31.6 nM,+ (100>FS>1),22.4 to 1000 nM,15.8 to 31.6 nM,31.6 to 501 nM,–,–,–,"++ (1,000>FS>100)",22.4 to 1000 nM,–
C[C@@H]1CN(CC(=O)N2CC(C)(C)c3[nH]c(=O)c(Cc4ccc(Cl)cc4C#N)cc32)[C@@H](CN2CCO[C@H](COc3cccc(OC[C@@H]4CN(C[C@H]5CN[C@H](C)CN5CC(=O)N5CC(C)(C)c6[nH]c(=O)c(Cc7ccc(Cl)cc7C#N)cc65)CCO4)c3)C2)CN1 [Compound 189],0.49 to 12.6 nM,15.8 to 31.6 nM,"+++ (10,000>FS>1,000)",1000 to 3160 nM,15.8 to 31.6 nM,31.6 to 501 nM,–,–,–,"+++ (10,000>FS>1,000)",3160 to 10000 nM,–
"C[C@@H]1CN(CC(=O)N2CC(C)(C)c3[nH]c(=O)c(Cc4ccc(F)cc4)cc32)[C@@H](CN2CCC(C(F)(F)COc3cccc(OCC(F)(F)C4CCN(C[C@H]5CN[C@H](C)CN5CC(=O)N5CC(C)(C)c6[nH]c(=O)c(Cc7ccc(F)cc7)cc65)CC4)c3)CC2)CN1 [Example 110, 1,1′-(2,2′-((3R,3′R,6R,6′R)-((((1,3-phenylenebis(oxy))bis(1,1-difluoroethane-2,1-diyl))bis(piperidine-4,1-diyl))bis(methylene))bis(3-methylpiperazine-6,1-diyl))bis(acetyl))bis(6-(4-fluorobenzyl)-3,3-dimethyl-1,2,3,4-tetrahydro-5H-pyrrolo[3,2-b]pyridin-5-one)]",0.49 to 12.6 nM,15.8 to 31.6 nM,–,–,15.8 to 31.6 nM,15.8 to 31.6 nM,"++++ (FS>10,000)",–,–,–,–,10000 to 51300 nM
"C[C@@H]1CN(CC(=O)N2CC(C)(C)c3[nH]c(=O)c(Cc4ccc(F)cc4)cc32)[C@@H](CN2CCO[C@H](COc3ccc(Cl)c(OC[C@@H]4CN(C[C@H]5CN[C@H](C)CN5CC(=O)N5CC(C)(C)c6[nH]c(=O)c(Cc7ccc(F)cc7)cc65)CCO4)c3)C2)CN1 [Example 89, 1,1′-(2,2′-((3R,3′R,6R,6′R)-(((2S,2'S)-(((4-chloro-1,3-phenylene)bis(oxy))bis(methylene))bis(morpholine-2,4-diyl))bis(methylene))bis(3-methylpiperazine-6,1-diyl))bis(acetyl))bis(6-(4-fluorobenzyl)-3,3-dimethyl-1,2,3,4-tetrahydro-5H-pyrrolo[3,2-b]pyridin-5-one)]",0.49 to 12.6 nM,15.8 to 31.6 nM,"+++ (10,000>FS>1,000)",3160 to 10000 nM,7.94 to 15.8 nM,15.8 to 31.6 nM,–,–,–,"+++ (10,000>FS>1,000)",1000 to 3160 nM,–
"C[C@@H]1CN(CC(=O)N2CC(C)(C)c3[nH]c(=O)c(Cc4ccc(F)cc4)cc32)[C@@H](CN2CCO[C@H](COc3ccccc3Cc3ccccc3OC[C@@H]3CN(C[C@H]4CN[C@H](C)CN4CC(=O)N4CC(C)(C)c5[nH]c(=O)c(Cc6ccc(F)cc6)cc54)CCO3)C2)CN1 [Example 66, 1,1′-(2,2′-((3R,3′R,6R,6′R)-(((2S,2'S)-(((methylenebis(2,1-phenylene))bis(oxy))bis(methylene))bis(morpholine-2,4-diyl))bis(methylene))bis(3-methylpiperazine-6,1-diyl))bis(acetyl))bis(6-(4-fluorobenzyl)-3,3-dimethyl-1,2,3,4-tetrahydro-5H-pyrrolo[3,2-b]pyridin-5-one)]",0.49 to 12.6 nM,15.8 to 31.6 nM,–,–,7.94 to 15.8 nM,15.8 to 31.6 nM,"++++ (FS>10,000)",–,–,–,–,10000 to 51300 nM
